{"source": "ChEMBL document CHEMBL1201862", "about": "“PubChem BioAssay data set” (2004)", "assay_type_in_all_cases": "functional", "key": {"[1]": {"target": "Protein disulfide-isomerase (Homo sapiens, UniProt P07237)", "sequence (P07237 whole entry)": "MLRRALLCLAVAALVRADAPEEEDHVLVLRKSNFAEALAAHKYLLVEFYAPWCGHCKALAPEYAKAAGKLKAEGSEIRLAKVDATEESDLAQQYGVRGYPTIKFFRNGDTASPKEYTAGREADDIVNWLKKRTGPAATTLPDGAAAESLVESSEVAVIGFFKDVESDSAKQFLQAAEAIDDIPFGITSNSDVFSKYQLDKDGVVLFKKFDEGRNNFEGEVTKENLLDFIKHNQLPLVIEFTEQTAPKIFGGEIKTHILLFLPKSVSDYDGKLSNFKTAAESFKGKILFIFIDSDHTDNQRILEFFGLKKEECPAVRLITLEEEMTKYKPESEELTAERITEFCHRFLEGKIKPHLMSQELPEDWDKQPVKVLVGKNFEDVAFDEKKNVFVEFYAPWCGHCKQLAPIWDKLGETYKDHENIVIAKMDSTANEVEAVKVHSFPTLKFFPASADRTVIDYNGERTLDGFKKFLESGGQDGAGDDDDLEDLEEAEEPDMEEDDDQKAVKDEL", "assay": "inhibition of PDI-driven insulin aggregation – biochemical, turbidity, absorbance, cherry-picked samples, dose response (AID 602350)"}, "[2]": {"assay": "intracellular Trypanosoma cruzi inhibitors in host cells – cell-based, plate reader, cherry-pick samples, set 3, dose response (AID 651818);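 also: compounds incubated with infected cells for about four days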"}, "[3]": {"target": "Vascular endothelial growth factor receptor 2 (Homo sapiens, UniProt P35968)", "sequence (P35968 whole entry)": "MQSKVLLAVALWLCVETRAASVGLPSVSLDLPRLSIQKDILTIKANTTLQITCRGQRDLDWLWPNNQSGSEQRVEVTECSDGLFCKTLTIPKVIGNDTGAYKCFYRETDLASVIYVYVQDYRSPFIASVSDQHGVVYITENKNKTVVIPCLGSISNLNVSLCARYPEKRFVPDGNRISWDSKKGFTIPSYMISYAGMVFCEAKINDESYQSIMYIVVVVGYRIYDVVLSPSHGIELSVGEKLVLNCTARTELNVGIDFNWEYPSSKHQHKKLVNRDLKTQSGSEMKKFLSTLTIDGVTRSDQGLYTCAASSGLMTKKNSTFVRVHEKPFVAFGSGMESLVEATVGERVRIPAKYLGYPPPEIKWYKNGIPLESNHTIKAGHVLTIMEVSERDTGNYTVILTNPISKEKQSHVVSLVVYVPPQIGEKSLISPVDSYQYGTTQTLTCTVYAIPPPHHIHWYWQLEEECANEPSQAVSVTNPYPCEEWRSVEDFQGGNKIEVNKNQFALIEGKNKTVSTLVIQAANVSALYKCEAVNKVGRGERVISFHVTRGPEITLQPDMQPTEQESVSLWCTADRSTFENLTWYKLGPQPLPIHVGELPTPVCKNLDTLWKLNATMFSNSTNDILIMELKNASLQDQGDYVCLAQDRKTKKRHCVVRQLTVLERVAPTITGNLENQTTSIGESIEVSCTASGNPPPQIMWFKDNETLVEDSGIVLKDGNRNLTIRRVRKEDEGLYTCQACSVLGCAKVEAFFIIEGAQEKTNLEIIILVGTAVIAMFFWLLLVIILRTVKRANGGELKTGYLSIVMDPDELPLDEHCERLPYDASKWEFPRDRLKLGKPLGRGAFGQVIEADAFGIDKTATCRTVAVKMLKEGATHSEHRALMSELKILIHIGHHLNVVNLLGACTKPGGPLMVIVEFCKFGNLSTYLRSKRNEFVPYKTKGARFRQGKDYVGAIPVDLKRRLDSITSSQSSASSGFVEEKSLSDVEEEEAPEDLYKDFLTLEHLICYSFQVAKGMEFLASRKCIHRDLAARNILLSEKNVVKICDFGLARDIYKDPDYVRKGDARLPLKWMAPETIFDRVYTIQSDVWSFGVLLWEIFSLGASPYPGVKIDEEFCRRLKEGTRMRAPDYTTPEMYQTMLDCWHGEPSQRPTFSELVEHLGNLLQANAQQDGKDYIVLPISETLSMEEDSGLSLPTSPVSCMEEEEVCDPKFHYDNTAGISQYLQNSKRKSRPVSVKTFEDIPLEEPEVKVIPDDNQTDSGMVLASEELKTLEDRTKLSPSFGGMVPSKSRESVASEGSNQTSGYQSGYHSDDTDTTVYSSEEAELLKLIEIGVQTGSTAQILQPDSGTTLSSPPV"}, "[4]": {"target": "Cyclin-dependent kinase 19 (Homo sapiens, UniProt Q9BWU1)", "assay": "Navigating the Kinome. Panel member name: CDC2L6"}, "[5]": {"target": "Dual specificity protein kinase CLK4 (Homo sapiens, UniProt Q9HAZ1)"}, "[6]": {"target": "Macrophage colony-stimulating factor 1 receptor (Homo sapiens, UniProt P07333)", "sequence (P07333 whole entry)": "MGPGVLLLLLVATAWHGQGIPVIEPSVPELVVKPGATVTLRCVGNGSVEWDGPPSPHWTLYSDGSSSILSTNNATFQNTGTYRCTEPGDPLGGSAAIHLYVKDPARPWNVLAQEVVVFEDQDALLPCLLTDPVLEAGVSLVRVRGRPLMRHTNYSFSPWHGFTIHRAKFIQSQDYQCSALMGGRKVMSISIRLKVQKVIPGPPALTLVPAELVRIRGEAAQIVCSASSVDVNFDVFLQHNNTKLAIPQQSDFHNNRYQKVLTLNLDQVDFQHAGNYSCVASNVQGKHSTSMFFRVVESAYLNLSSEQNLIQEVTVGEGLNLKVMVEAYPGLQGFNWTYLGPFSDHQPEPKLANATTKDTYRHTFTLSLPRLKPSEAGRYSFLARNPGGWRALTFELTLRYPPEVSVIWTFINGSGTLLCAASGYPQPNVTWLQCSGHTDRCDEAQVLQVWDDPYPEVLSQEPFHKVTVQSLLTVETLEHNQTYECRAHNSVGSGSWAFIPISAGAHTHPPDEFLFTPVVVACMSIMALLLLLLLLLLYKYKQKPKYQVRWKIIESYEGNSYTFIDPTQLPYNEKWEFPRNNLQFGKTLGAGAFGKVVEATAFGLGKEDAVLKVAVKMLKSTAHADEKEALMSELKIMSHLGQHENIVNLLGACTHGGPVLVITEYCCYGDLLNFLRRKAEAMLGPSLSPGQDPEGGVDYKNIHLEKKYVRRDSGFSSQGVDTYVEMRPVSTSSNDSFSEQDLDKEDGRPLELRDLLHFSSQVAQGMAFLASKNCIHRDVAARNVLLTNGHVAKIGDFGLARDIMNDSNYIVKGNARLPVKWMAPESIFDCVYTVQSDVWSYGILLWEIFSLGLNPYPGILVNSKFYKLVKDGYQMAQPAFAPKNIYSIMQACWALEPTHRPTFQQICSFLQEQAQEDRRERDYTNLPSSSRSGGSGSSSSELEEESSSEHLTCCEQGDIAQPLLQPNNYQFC"}, "[7]": {"target": "Benomyl/methotrexate resistance protein (Candida albicans, UniProt P28873)", "assay": "Candida albicans Mdr1 pump inhibition curves – singleplex, Cherry Pick1 hits, dose response (AID 588608)"}, "[8]": {"target": "Multidrug resistance protein CDR1 (Candida albicans, UniProt P43071)", "sequence (P43071 whole entry, looked up)": "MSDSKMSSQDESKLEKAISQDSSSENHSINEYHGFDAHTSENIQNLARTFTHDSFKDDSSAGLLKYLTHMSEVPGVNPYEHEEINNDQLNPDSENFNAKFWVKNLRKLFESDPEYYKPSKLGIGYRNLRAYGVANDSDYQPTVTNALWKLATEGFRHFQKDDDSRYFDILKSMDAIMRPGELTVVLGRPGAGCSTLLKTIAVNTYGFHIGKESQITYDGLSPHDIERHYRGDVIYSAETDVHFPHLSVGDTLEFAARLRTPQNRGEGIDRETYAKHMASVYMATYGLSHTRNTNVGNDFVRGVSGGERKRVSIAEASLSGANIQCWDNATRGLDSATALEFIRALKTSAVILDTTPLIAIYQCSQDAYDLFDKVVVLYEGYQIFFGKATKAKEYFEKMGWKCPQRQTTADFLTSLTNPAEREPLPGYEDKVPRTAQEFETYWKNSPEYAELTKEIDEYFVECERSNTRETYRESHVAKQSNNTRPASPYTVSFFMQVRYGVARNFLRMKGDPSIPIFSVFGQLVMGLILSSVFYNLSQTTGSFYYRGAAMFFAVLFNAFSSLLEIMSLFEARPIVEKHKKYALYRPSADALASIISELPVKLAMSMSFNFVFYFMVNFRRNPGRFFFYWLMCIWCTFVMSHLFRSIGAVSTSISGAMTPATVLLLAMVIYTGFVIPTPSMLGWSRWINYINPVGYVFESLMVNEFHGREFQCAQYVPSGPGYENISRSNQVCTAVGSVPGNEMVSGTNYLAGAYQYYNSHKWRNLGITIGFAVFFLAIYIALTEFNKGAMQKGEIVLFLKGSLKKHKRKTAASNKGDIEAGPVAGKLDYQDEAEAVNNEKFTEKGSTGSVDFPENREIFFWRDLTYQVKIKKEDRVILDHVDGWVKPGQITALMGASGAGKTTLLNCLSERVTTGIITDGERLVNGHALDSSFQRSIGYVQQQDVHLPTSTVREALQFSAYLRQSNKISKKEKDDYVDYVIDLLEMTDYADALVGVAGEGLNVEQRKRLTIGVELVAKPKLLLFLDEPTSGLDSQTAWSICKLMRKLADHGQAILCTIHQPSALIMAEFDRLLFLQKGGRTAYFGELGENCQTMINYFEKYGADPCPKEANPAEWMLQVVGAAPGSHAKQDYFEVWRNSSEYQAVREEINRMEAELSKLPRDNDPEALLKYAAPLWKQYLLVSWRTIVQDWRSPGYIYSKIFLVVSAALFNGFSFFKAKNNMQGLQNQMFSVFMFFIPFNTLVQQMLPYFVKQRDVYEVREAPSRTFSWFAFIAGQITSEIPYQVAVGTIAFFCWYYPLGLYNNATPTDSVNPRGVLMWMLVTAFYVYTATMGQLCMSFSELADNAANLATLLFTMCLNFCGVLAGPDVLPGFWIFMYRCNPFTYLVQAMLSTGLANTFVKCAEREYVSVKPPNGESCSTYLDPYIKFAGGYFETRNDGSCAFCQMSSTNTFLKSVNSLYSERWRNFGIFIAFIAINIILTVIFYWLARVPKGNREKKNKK", "assay": "Candida albicans Cdr1 pump inhibition curves – singleplex, Cherry Pick2 set, dose response (AID 623996)", "settings": "read-out: EC50_MICROM"}, "Aurora kinase A": {"target": "Aurora kinase A (Homo sapiens, UniProt O14965)", "sequence (O14965 whole entry)": "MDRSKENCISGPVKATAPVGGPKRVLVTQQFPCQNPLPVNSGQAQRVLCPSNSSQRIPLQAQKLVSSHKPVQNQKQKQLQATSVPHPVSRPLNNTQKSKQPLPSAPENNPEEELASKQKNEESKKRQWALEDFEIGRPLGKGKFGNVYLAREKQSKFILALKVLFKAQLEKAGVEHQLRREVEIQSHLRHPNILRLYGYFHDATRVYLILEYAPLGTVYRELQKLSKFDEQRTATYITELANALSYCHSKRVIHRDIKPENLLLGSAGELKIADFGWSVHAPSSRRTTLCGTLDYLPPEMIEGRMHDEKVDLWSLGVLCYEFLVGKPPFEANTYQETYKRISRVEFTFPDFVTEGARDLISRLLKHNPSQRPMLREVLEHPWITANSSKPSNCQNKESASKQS"}, "Aurora kinase B": {"target": "Aurora kinase B (Homo sapiens, UniProt Q96GD4)", "sequence (Q96GD4 whole entry)": "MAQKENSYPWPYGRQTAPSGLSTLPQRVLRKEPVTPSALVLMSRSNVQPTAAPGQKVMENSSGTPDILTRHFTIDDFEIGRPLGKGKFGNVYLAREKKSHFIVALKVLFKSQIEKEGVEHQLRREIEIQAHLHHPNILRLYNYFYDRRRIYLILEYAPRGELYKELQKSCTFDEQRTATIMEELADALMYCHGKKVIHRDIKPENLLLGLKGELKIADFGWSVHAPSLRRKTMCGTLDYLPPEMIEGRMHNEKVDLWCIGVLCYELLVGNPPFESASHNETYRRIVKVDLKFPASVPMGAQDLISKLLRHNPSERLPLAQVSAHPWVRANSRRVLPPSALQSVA"}}, "note": "The source made the active and inactive calls."}
{"smiles": "C[C@H](CO)N1C[C@H](C)[C@H](CN(C)S(=O)(=O)c2ccc(F)cc2)Oc2ccc(NC(=O)Cc3cn(C)c4ccccc34)cc2C1=O", "values": [{"measurement": "AC50", "setting": "[1]", "value": "19.5 µM (active)"}, {"measurement": "AC50", "setting": "[2]", "value": "5.29 µM (active)"}]}
{"smiles": "N#Cc1cnn2c(-c3ccccc3)ccnc12", "values": [{"measurement": "Ki", "setting": "[3]", "value": "> 100 µM (inactive)"}, {"measurement": "Ki", "setting": "[4]", "value": "> 100 µM (inactive)"}, {"measurement": "Ki", "setting": "[5]", "value": "10 µM (active)"}, {"measurement": "Ki", "setting": "[6]", "value": "> 100 µM (inactive)"}]}
{"smiles": "CC(C)C(=O)N1CCC2(CC1)Oc1ccc(F)cc1C(=O)C21CC(c2ccccc2)=NO1", "note": "(stereo unspecified)", "values": [{"measurement": "EC50", "setting": "[7]", "value": "12.5 µM (active)"}, {"measurement": "EC50", "setting": "[8]", "value": "23.9 µM (active)"}]}
{"smiles": "CS(=O)(=O)Nc1ccc2c(c1)C(=NO)c1ccccc1-2", "values": [{"measurement": "Ki", "setting": "Aurora kinase A", "value": "398 nM (active)"}, {"measurement": "Ki", "setting": "[3]", "value": "0.794 µM (active)"}, {"measurement": "Ki", "setting": "Aurora kinase B", "value": "39.8 nM (active)"}]}
